Laboratory results from US20230053493A1, “ONE STEP METHODS, KITS, AND SYSTEMS FOR THE MEASUREMENT OF CONCENTRATIONS OF UNBOUND BILIRUBIN IN BIOLOGICAL FLUIDS” (priority 2019, published 2023).
Values belong to the molecule of their own block, whether it stands above or below them.

Legend:
Albumin = Albumin (Homo sapiens, UniProt P02768); conditions: cefazolin 3.76 mM
adult human albumin = adult human albumin (Homo sapiens, UniProt P02768); conditions: high affinity site; read-out: equilibrium dissociation constant (Kd) of bilirubin for adult human albumin; cited from earlier work
Sequence of adult human albumin (P02768 25-609): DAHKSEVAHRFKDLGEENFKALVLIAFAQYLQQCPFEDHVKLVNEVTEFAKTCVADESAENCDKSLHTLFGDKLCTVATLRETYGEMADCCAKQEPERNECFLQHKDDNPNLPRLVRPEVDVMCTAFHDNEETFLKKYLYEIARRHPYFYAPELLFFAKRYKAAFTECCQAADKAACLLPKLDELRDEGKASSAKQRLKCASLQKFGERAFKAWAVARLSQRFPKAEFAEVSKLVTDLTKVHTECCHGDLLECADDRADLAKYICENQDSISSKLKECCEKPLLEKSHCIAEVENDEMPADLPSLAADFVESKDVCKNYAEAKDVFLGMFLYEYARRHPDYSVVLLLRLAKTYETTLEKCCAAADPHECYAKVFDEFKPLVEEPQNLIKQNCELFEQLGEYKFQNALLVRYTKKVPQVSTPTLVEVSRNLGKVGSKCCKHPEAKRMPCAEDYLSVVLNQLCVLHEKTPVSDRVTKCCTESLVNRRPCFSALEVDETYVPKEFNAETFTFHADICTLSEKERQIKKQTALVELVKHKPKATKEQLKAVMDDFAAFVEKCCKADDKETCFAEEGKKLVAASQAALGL

[1] = Effect of hemoglobin/hemolysate on UBCheck Bf measurement; design: species or system human; conditions: bilirubin spiked neonatal serum; hemoglobin concentrations at least as high as 4 g/l; cartridges with Hb blocking peptide
Method: After the Bf responder and non-responder probes are applied to the Ni-polystyrene beads, the peptide of Table 4 is added to the beads and is attached through double HIS tags to the bead's Ni-NTAs. The combined probes plus peptide beads are then spotted onto cartridges. The effect of whole blood hemolysate was tested by titrating bilirubin spiked neonatal serum with increasing hemoglobin concentrations.

[2] = Stability of non-responder probe 700/819 nm emission ratio in storage; assay type: physicochemical; conditions: at 1 and 6 days; absence of 700DX-maleimide
Source text: All responder probes labeled with LICOR 700DX-maleimide and non-responder probes labeled with LICOR 800CW-maleimide probes in Tables 1 and 2, respectively have qualitatively similar dependencies on Bf. The probes differ mostly in protein expression, binding parameters (Kd, Ro and Rm) and stability. […] Although the non-responders are not characterized by bilirubin binding parameters, the emission spectrum of the 800CW-maleimide is sensitive to specific substitutions that can alter the LICOR 700DX-maleimide intensities. […] In some of these mutants the ratio of 700 to 819 nm increased from about 1% to 20% while in storage at 4° C. With suitable mutations this instability was eliminated.

[3] = Fluorescence intensities of Bf sensor with increasing total bilirubin (FIG. 1); assay type: binding; conditions: increasing BT; 675 nm excitation; probe 10 nM, free in aqueous buffer
Method: FIG. 1 depicts the intensities and ratios of intensities for a Bf sensor composed of the bilirubin responsive LICOR 700DX maleimide Mut:SEQ ID NO:2-76C probe (Table 1) and the bilirubin non-responder LICOR 800CW maleimide Mut:SEQ ID NO:1 B-73C probe (Table 2), both free in aqueous buffer, with increasing BT (total bilirubin) which at the concentrations used is primarily unbound bilirubin (Bf). Measurements of the 710 and 805 nm intensities at 675 nm excitation were performed at the probe concentrations of 1.5 nM and 10 nM, respectively in a Horiba Fluorolog 2.

Sequence of Albumin (P02768 25-609): as above

Bf larger in the UBCheck than Arrows (Albumin): ~5 fold
Molecule: Cc1nnc(SCC2=C(C(=O)O)N3C(=O)[C@@H](NC(=O)Cn4cnnn4)[C@H]3SC2)s1 [Cefazolin]

Molecule: C=CC1=C(C)/C(=C/c2[nH]c(Cc3[nH]c(/C=C4\NC(=O)C(C)=C4C=C)c(C)c3CCC(=O)O)c(CCC(=O)O)c2C)NC1=O [bilirubin]
Kd (adult human albumin): ~20 nM

Molecule: hemoglobin
Bf concentration relative to zero hemoglobin [1]: unaffected

B1: Mut:SEQ ID NO:1 B-73C: non-responder rat FABP mutein 20R 27A 29R 72A 73C 74F 100R 126W 131D-C2XH11 labeled with LICOR 800CW-maleimide (protein)
chain: AFDGTWKVDRNENYEKFMERMGINVVARRLGAHDNLKLTITQEGNKFTVKESSNFRNIDVVFELGVDFAYSACFGTELTGTWTMEGNKLVGKFKRVDNGRELIAVREISGNELIQTYTYEGVEAKWIFKKDRGAASHHHHHHSHRATPNTSPHHHHHHH
modifications: LICOR 800CW-maleimide label; nonresponder mutated probe
notes: non-responder rat FABP mutein 20R 27A 29R 72A 73C 74F 100R 126W 131D-C2XH11 labeled with LICOR 800CW-maleimide
700/819 ratio [2]: 1% | intensity change (cv) of LICOR 800CW maleimide measured at 805 nm [3]: 2.5%
